# Reference: patent publication US5215744A, “Methods for the treatment of tumors” (Boehringer Ingelheim GmbH, priority 1987, dated 1993)
# Tests used:
# KT cells = test: Cell proliferation inhibition test (trypan-blue exclusion), continuous exposure; assay type: cell-based, human
# Text: (§1) Four established cell lines were used. These were MM-1CB, derived from tissues of malignant melanoma (level IV, pT4 N0 M0) in a person (Jpn. J. Dermatol. 96:947 (1986)); KT, derived from metastatic brain tumor in a person (J. Rad. Res. 26:59 (1985) and The 44th Meeting of Japanese Cancer Association, 718 (1985)); PLC/PRF/5, derived from human hepatoma (Brit. J. Cancer 34:509-515 (1976)) and a transformed cell line RSa (Virology 135:20-29 (1984), and J. Natl. Cancer Inst. 56:919-926 (1976)).
# (§2) Cells were cultured with Eagle's minimal essential medium (EMEM) containing 10% fetal bovine serum (GIBCO, U.S.A.) and antibiotics ([…] streptomycin/ml and 100 units penicillin G/ml), in an incubator at 37° C. under 5% CO2.
# (§3) Other chemical agents were purchased from the Nakarai Co., Ltd., Japan.
# (§4) Changes of medium with and without agents were carried out every other day. The viable cells were determined by trypan-blue exclusion test and counted with a hemocytometer. The survival percentage ratio was expressed as (counts of viable cells in test dishes per counts of viable cells in control dishes) x 100%, as described elsewhere in, e.g., Mutation Research 106:357-376 (1982) and […]. 67:651-661 (1986).
# (§5) Most of experiments were carried out under a dim light or in the dark. Results were expressed as the mean of values obtained from more than two independent experiments.
# MM-1CB = test: as above; assay type: cell-based, human
# Text: as §1, §2, §3, §4, §5
# PLC/PRF/5 cells = test: as above; assay type: cell-based, human; settings: HuIFN and dipyridamole (FIG. 5)
# Text: as §1, §2, §3, §4, §5
# MM-1CB cells = test: Survival of MM-1CB cells after sequential dipyridamole / interferon β treatment; assay type: cell-based, human; settings: vs simultaneous administration; cells cultured in dishes (FIG. 11)
# Method: Experimental numbers (Exp. Nos.) 1, 2, and 3 were the results obtained under reported cell-culture-conditions. In Exp. Nos. 4 and 5, treatment with DP alone and without IFN β was done during […] of the experiment schedule, respectively. In Exp. No. 6 IFN β treatment alone, without the DP addition, was done after DP treatment alone for the first 24 hours of the experimental schedule; after the DP treatment culture medium was depleted and cells were washed three times with Eagle's minimal essential medium, followed by being cultured with medium containing IFN β.
# [1] = test system: human ovarian carcinoma cell line; settings: cited from earlier work
# [2] = test system: ridgway osteogenic sarcoma; settings: with MTX; cited from earlier work
# LIZIO leukemia = settings: with MTX; cited from earlier work
# interferon in mice = settings: I.V.; cited from earlier work
# [3] = test system: salvage pathway of DNA synthesis; settings: cited from earlier work
# DNA = settings: dipyridamole alone; cited from earlier work
smiles,measurement,setting,value
"OCCN(CCO)c1nc(N2CCCCC2)c2nc(N(CCO)CCO)nc(N3CCCCC3)c2n1 [dipyridamole, 2,6-bis(diethanolamine)-4,8-dipiperidino-pyrimido[5,4-d]pyrimidin]","synergistic inhibitory activity, susceptibility",KT cells; HuIFN and dipyridamole (FIG. 4),high susceptibility to the synergistic inhibitory activity
same,"inhibition of cell replication, combination",KT cells; HuIFN-α with simultaneous dipyridamole (FIG. 4),inhibition of cell replication was enhanced
same,influence on KT cell replication,"KT cells; dipyridamole alone, less than 0.1 μM (FIG. 4B)",scarcely influenced KT cell replication
same,concentration that enhances the inhibitory effect of HuIFN-α,KT cells; with HuIFN-α (FIG. 4B),less than 0.1 μM
same,"effect with HuIFN-α, -β and -γ","MM-1CB; 0.1 μM dipyridamole continuously, 6 days (FIG. 3A)","additive effect with HuIFN-α, -β and -γ was also observed"
same,inhibition of cell growth,"MM-1CB; 0.1 μM dipyridamole with 10 units/ml HuIFN-β, more than 4 days (FIG. 1)",considerable inhibition of cell growth
same,suppression of cell proliferation,MM-1CB; agent alone: 10 units/ml HuIFN-β or 0.1 μM dipyridamole (FIG. 1),only slightly effective in suppressing cell proliferation
same,lower concentration effective in enhancing the anticellular effect of HuIFN,"MM-1CB; with HuIFN, 6 days (FIG. 3B)",0.01 µM
same,"synergistic inhibitory activity, susceptibility",PLC/PRF/5 cells,high susceptibility to the synergistic inhibitory activity
same,effect of dipyridamole pretreatment on proliferation,MM-1CB cells,more effective than a simultaneous administration of the two agents
same,cytotoxicity of its own,[1]; dipyridamole alone,no cytotoxicity of its own
same,PALA activity,[1]; with PALA,increased PALA activity
same,antitumor activity of MTX,[2],not dramatically improved
same,antitumor activity of MTX,LIZIO leukemia,not dramatically improved
same,interferon induction in mice,interferon in mice,induced interferon in mice after I.V. administration
same,block of the salvage pathway of DNA synthesis,[3],effective blocker of the salvage pathway of DNA synthesis
same,DNA damage,DNA,does not damage DNA
